Laboratory results from US8802661B2, “C-28 amides of modified C-3 betulinic acid derivatives as HIV maturation inhibitors” (priority 2010, dated 2014).
Where a name gives a salt, the structure may show the parent alone. Read-outs that look alike come from different tables or passages of the source.

Test system: recombinant NL4-3 virus (Renilla luciferase in nef, Gag P373S)
Test: HIV Cell Culture Assay (luciferase reporter virus in MT-2 cells)
Format: cell-based
Summary of the method: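 Cells grown in serum-supplemented RPMI were exposed to graded inhibitor concentrations during a 4-5 day infection. Antiviral effect was then derived from luminescence after adding a combined lysis and dual-luciferase substrate mixture to each well.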

Row | SMILES | EC50 (NL43, read-out: EC50 Group) | EC50 (NL43)
1 | C=C(C)[C@@H]1CC[C@]2(C(=O)N[C@@H](CC(C)C)C(=O)O)CC[C@]3(C)[C@H](CC[C@@H]4[C@@]5(C)CC=C(c6ccc(C(=O)O)cc6)C(C)(C)[C@@H]5CC[C@]43C)[C@@H]12 [Example 59, 4-((1R,3aS,5aR,5bR,7aR,11aS,11bR,13aR,13bR)-3a-((S)-1-carboxy-3-methylbutylcarbamoyl)-5a,5b,8,8,11a-pentamethyl-1-(prop-1-en-2-yl)-2,3,3a,4,5,5a,5b,6,7,7a,8,11,11a,11b,12,13,13a,13b-octadecahydro-1H-cyclopenta[a]chrysen-9-yl)benzoic acid] | < 100 nM | –
2 | C=C(C)[C@@H]1CC[C@]2(C(=O)NCCCN3CCCC3=O)CC[C@]3(C)[C@H](CC[C@@H]4[C@@]5(C)CC=C(c6ccc(C(=O)O)cc6)C(C)(C)[C@@H]5CC[C@]43C)[C@@H]12 [Example 87, 4-((1R,3aS,5aR,5bR,7aR,11aS,11bR,13aR,13bR)-5a,5b,8,8,11a-pentamethyl-3a-(3-(2-oxopyrrolidin-1-yl)propylcarbamoyl)-1-(prop-1-en-2-yl)-2,3,3a,4,5,5a,5b,6,7,7a,8,11,11a,11b,12,13,13a,13b-octadecahydro-1H-cyclopenta[a]chrysen-9-yl)benzoic acid] | < 100 nM | –
3 | C=C(C)[C@@H]1CC[C@]2(C(=O)NCC(O)CO)CC[C@]3(C)[C@H](CC[C@@H]4[C@@]5(C)CC=C(c6ccc(C(=O)O)cc6)C(C)(C)[C@@H]5CC[C@]43C)[C@@H]12 (stereo partly drawn) [Example 71, 4-((1R,3aS,5aR,5bR,7aR,11aS,11bR,13aR,13bR)-3a-(2,3-dihydroxypropylcarbamoyl)-5a,5b,8,8,11a-pentamethyl-1-(prop-1-en-2-yl)-2,3,3a,4,5,5a,5b,6,7,7a,8,11,11a,11b,12,13,13a,13b-octadecahydro-1H-cyclopenta[a]chrysen-9-yl)benzoic acid] | < 100 nM | –
4 | C=C(C)[C@@H]1CC[C@]2(C(=O)NCCN3CCNC(=O)C3)CC[C@]3(C)[C@H](CC[C@@H]4[C@@]5(C)CC=C(c6ccc(C(=O)O)cc6)C(C)(C)[C@@H]5CC[C@]43C)[C@@H]12 [Example 108, 4-((1R,3aS,5aR,5bR,7aR,11aS,11bR,13aR,13bR)-5a,5b,8,8,11a-pentamethyl-3a-(2-(3-oxopiperazin-1-yl)ethylcarbamoyl)-1-(prop-1-en-2-yl)-2,3,3a,4,5,5a,5b,6,7,7a,8,11,11a,11b,12,13,13a,13b-octadecahydro-1H-cyclopenta[a]chrysen-9-yl)benzoic acid] | < 100 nM | –
5 | C=C(C)[C@@H]1CC[C@]2(C(=O)NCc3ccc(OC)cc3)CC[C@]3(C)[C@H](CC[C@@H]4[C@@]5(C)CC=C(c6ccc(C(=O)O)cc6)C(C)(C)[C@@H]5CC[C@]43C)[C@@H]12 [Example 15, 4-((1R,3aS,5aR,5bR,7aR,11aS,11bR,13aR,13bR)-3a-(4-methoxybenzylcarbamoyl)-5a,5b,8,8,11a-pentamethyl-1-(prop-1-en-2-yl)-2,3,3a,4,5,5a,5b,6,7,7a,8,11,11a,11b,12,13,13a,13b-octadecahydro-1H-cyclopenta[a]chrysen-9-yl)benzoic acid] | < 100 nM | –
6 | C=C(C)[C@@H]1CC[C@]2(C(=O)N3CCCC3C(=O)O)CC[C@]3(C)[C@H](CC[C@@H]4[C@@]5(C)CC=C(c6ccc(C(=O)O)cc6)C(C)(C)[C@@H]5CC[C@]43C)[C@@H]12 (stereo partly drawn) [Example 128, 1-((1R,3aS,5aR,5bR,7aR,11aS,11bR,13aR,13bR)-9-(4-carboxyphenyl)-5a,5b,8,8,11a-pentamethyl-1-(prop-1-en-2-yl)-2,3,3a,4,5,5a,5b,6,7,7a,8,11,11a,11b,12,13,13a,13b-octadecahydro-1H-cyclopenta[a]chrysene-3a-carbonyl)pyrrolidine-2-carboxylic acid] | < 100 nM | –
7 | C=C(C)[C@@H]1CC[C@]2(C(=O)NCCS(=O)(=O)O)CC[C@]3(C)[C@H](CC[C@@H]4[C@@]5(C)CC=C(c6ccc(C(=O)O)cc6)C(C)(C)[C@@H]5CC[C@]43C)[C@@H]12 [Example 82, sodium 4-((1R,3aS,5aR,5bR,7aR,11aS,11bR,13aR,13bR)-5a,5b,8,8,11a-pentamethyl-1-(prop-1-en-2-yl)-3a-(2-sulfonatoethylcarbamoyl)-2,3,3a,4,5,5a,5b,6,7,7a,8,11,11a,11b,12,13,13a,13b-octadecahydro-1H-cyclopenta[a]chrysen-9-yl)benzoate] | – | 1230 nM
8 | C=C(C)[C@@H]1CC[C@]2(C(=O)NCCN(CC(=O)O)C(C)C)CC[C@]3(C)[C@H](CC[C@@H]4[C@@]5(C)CC=C(c6ccc(C(=O)O)cc6)C(C)(C)[C@@H]5CC[C@]43C)[C@@H]12 [Example 95, 4-((1R,3aS,5aR,5bR,7aR,11aS,11bR,13aR,13bR)-3a-(2-((carboxymethyl)(isopropyl)amino)ethylcarbamoyl)-5a,5b,8,8,11a-pentamethyl-1-(prop-1-en-2-yl)-2,3,3a,4,5,5a,5b,6,7,7a,8,11,11a,11b,12,13,13a,13b-octadecahydro-1H-cyclopenta[a]chrysen-9-yl)benzoic acid] | < 100 nM | –
9 | C=C(C)[C@@H]1CC[C@]2(C(=O)NCc3ccncc3)CC[C@]3(C)[C@H](CC[C@@H]4[C@@]5(C)CC=C(c6ccc(C(=O)O)cc6)C(C)(C)[C@@H]5CC[C@]43C)[C@@H]12 [Example 28, 4-((1R,3aS,5aR,5bR,7aR,11aS,11bR,13aR,13bR)-5a,5b,8,8,11a-pentamethyl-1-(prop-1-en-2-yl)-3a-(pyridin-4-ylmethylcarbamoyl)-2,3,3a,4,5,5a,5b,6,7,7a,8,11,11a,11b,12,13,13a,13b-octadecahydro-1H-cyclopenta[a]chrysen-9-yl)benzoic acid] | < 100 nM | –
10 | C=C(C)[C@@H]1CC[C@]2(C(=O)NCc3cccs3)CC[C@]3(C)[C@H](CC[C@@H]4[C@@]5(C)CC=C(c6ccc(C(=O)O)cc6)C(C)(C)[C@@H]5CC[C@]43C)[C@@H]12 [Example 42, 4-((1R,3aS,5aR,5bR,7aR,11aS,11bR,13aR,13bR)-5a,5b,8,8,11a-pentamethyl-1-(prop-1-en-2-yl)-3a-(thiophen-2-ylmethylcarbamoyl)-2,3,3a,4,5,5a,5b,6,7,7a,8,11,11a,11b,12,13,13a,13b-octadecahydro-1H-cyclopenta[a]chrysen-9-yl)benzoic acid] | – | 120 nM
11 | C=C(C)[C@@H]1CC[C@]2(C(=O)N[C@@H](Cc3ccccc3)C(=O)O)CC[C@]3(C)[C@H](CC[C@@H]4[C@@]5(C)CC=C(c6ccc(C(=O)O)cc6)C(C)(C)[C@@H]5CC[C@]43C)[C@@H]12 [Example 58, 4-((1R,3aS,5aR,5bR,7aR,11aS,11bR,13aR,13bR)-3a-((S)-1-carboxy-2-phenylethylcarbamoyl)-5a,5b,8,8,11a-pentamethyl-1-(prop-1-en-2-yl)-2,3,3a,4,5,5a,5b,6,7,7a,8,11,11a,11b,12,13,13a,13b-octadecahydro-1H-cyclopenta[a]chrysen-9-yl)benzoic acid] | < 100 nM | –
12 | C=C(C)[C@@H]1CC[C@]2(C(=O)NCC(C)(C)N)CC[C@]3(C)[C@H](CC[C@@H]4[C@@]5(C)CC=C(c6ccc(C(=O)O)cc6)C(C)(C)[C@@H]5CC[C@]43C)[C@@H]12 [Example 38, 4-((1R,3aS,5aR,5bR,7aR,11aS,11bR,13aR,13bR)-3a-(2-amino-2-methylpropylcarbamoyl)-5a,5b,8,8,11a-pentamethyl-1-(prop-1-en-2-yl)-2,3,3a,4,5,5a,5b,6,7,7a,8,11,11a,11b,12,13,13a,13b-octadecahydro-1H-cyclopenta[a]chrysen-9-yl)benzoic acid] | < 100 nM | –
13 | C=C(C)[C@@H]1CC[C@]2(C(=O)NS(C)(=O)=O)CC[C@]3(C)[C@H](CC[C@@H]4[C@@]5(C)CC=C(c6ccc(C(=O)O)cc6)C(C)(C)[C@@H]5CC[C@]43C)[C@@H]12 [Example 8, 4-((1R,3aS,5aR,5bR,7aR,11aS,11bR,13aR,13bR)-5a,5b,8,8,11a-pentamethyl-3a-(methylsulfonylcarbamoyl)-1-(prop-1-en-2-yl)-2,3,3a,4,5,5a,5b,6,7,7a,8,11,11a,11b,12,13,13a,13b-octadecahydro-1H-cyclopenta[a]chrysen-9-yl)benzoic acid] | < 100 nM | –
14 | C=C(C)[C@@H]1CC[C@]2(C(=O)N3CCN(CCO)CC3)CC[C@]3(C)[C@H](CC[C@@H]4[C@@]5(C)CC=C(c6ccc(C(=O)O)cc6)C(C)(C)[C@@H]5CC[C@]43C)[C@@H]12 [Example 13, 4-((1R,3aS,5aR,5bR,7aR,11aS,11bR,13aR,13bR)-3a-(4-(2-hydroxyethyl)piperazine-1-carbonyl)-5a,5b,8,8,11a-pentamethyl-1-(prop-1-en-2-yl)-2,3,3a,4,5,5a,5b,6,7,7a,8,11,11a,11b,12,13,13a,13b-octadecahydro-1H-cyclopenta[a]chrysen-9-yl)benzoic acid, TFA] | < 100 nM | –
15 | C=C(C)[C@@H]1CC[C@]2(C(=O)N(C)CCO)CC[C@]3(C)[C@H](CC[C@@H]4[C@@]5(C)CC=C(c6ccc(C(=O)O)cc6)C(C)(C)[C@@H]5CC[C@]43C)[C@@H]12 [Example 23, 4-((1R,3aS,5aR,5bR,7aR,11aS,11bR,13aR,13bR)-3a-((2-hydroxyethyl)(methyl)carbamoyl)-5a,5b,8,8,11a-pentamethyl-1-(prop-1-en-2-yl)-2,3,3a,4,5,5a,5b,6,7,7a,8,11,11a,11b,12,13,13a,13b-octadecahydro-1H-cyclopenta[a]chrysen-9-yl)benzoic acid] | < 100 nM | –
16 | C=C(C)[C@@H]1CC[C@]2(C(=O)NCCN(C)C)CC[C@]3(C)[C@H](CC[C@@H]4[C@@]5(C)CC=C(c6ccc(C(=O)O)c(C(=O)O)c6)C(C)(C)[C@@H]5CC[C@]43C)[C@@H]12 [Example 113, 4-((1R,3aS,5aR,5bR,7aR,11aS,11bR,13aR,13bR)-3a-(2-(dimethylamino)ethylcarbamoyl)-5a,5b,8,8,11a-pentamethyl-1-(prop-1-en-2-yl)-2,3,3a,4,5,5a,5b,6,7,7a,8,11,11a,11b,12,13,13a,13b-octadecahydro-1H-cyclopenta[a]chrysen-9-yl)phthalic acid] | > 100 nM | –
